Measurements: US11275071B2, “Sensor dyes for real-time sensing of metal ions in aqueous environments” (UWM Research Foundation, Inc., priority 2015, dated 2022)

Columns and labels:
[1] = Metal response of PAN-7OH, absorbance at pH 7; type: binding; details: 25 μM PAN-7OH, 250 μM metal ion, pH 7 buffer, 2 mM Triton X-100
Protocol: (§1) Solutions were made containing 25 μM PAN-7OH and 250 μM metal ion (excess amount) in pH 7 buffer containing 2 mM Triton X-100.

[2] = Metal response of PAN-7OH, absorbance at pH 7; type: binding; details: 25 μM PAN-7OH, 250 μM metal ion, pH 7 buffer, 2 mM Triton X-100; remark: listed apart in the source
Protocol: as §1

[3] = Metal response of PAN-7OH, absorbance at pH 7; type: binding; details: 25 μM PAN-7OH, 250 μM metal ion, pH 7 buffer, 2 mM Triton X-100; remark: listed apart in the source
Protocol: as §1

[4] = Metal response of PAN-7OH, absorbance at pH 7; type: binding; details: 25 μM PAN-7OH, 250 μM metal ion, pH 7 buffer, 2 mM Triton X-100; remark: listed apart in the source
Protocol: as §1

[5] = Protonation states of free PAN-7OH, pKA; type: physicochemical; details: free dye; site 1-OH (Metal Binding)
Protocol: The acid dissociation constants (pKA) and spectral profiles were determined for PAN-70H. PAN-7OH has three protonation sites: The heterocyclic nitrogen in the pyridyl moiety, and the two hydroxyl groups on the naphthalene ring. […] The latter group can potentially be used for covalent attachment of the sensor to a substrate.
The buffer reagents were treated with Chelex-100 to remove trace metal impurities. The samples were prepared containing 25 μM PAN-7OH in a 0.1 M pH buffer containing 2 mM Triton X-100 surfactant.
The data was analyzed using ReactLab Equilibria to determine the resulting pKA values. PAN-7OH has three protonation sites, so four species were used for the analysis model. The pKA values were assigned using values from well-known molecules with a similar structure. […] No error propagation calculations were performed here.

[6] = Metal response of PAN-7OH, absorbance at pH 7; type: binding; details: 25 μM PAN-7OH, 250 μM metal ion, pH 7 buffer, 2 mM Triton X-100; remark: listed apart in the source
Protocol: as §1

[7] = Metal response of PAN-7OH, absorbance at pH 7; type: binding; details: 25 μM PAN-7OH, 250 μM metal ion, pH 7 buffer, 2 mM Triton X-100; remark: listed apart in the source
Protocol: as §1

[8] = Metal response of PAN-7OH, absorbance at pH 7; type: binding; details: 25 μM PAN-7OH, 250 μM metal ion, pH 7 buffer, 2 mM Triton X-100; remark: listed apart in the source
Protocol: as §1

[9] = Protonation states of Zn-(PAN-7OH) complexes
[10] = Metal response of PAN-7OH, absorbance at pH 7; type: binding; details: 25 μM PAN-7OH, 250 μM metal ion, pH 7 buffer, 2 mM Triton X-100; remark: listed apart in the source
Protocol: as §1

[11] = Metal response of PAN-7OH, absorbance at pH 7; type: binding; details: 25 μM PAN-7OH, 250 μM metal ion, pH 7 buffer, 2 mM Triton X-100; remark: listed apart in the source
Protocol: as §1

[12] = Metal response of PAN-7OH, absorbance at pH 7; type: binding; details: 25 μM PAN-7OH, 250 μM metal ion, pH 7 buffer, 2 mM Triton X-100; remark: listed apart in the source
Protocol: as §1

[13] = Metal response of PAN-7OH, absorbance at pH 7; type: binding; details: 25 μM PAN-7OH, 250 μM metal ion, pH 7 buffer, 2 mM Triton X-100; remark: listed apart in the source
Protocol: as §1

[14] = Metal response of PAN-7OH, absorbance at pH 7; type: binding; details: 25 μM PAN-7OH, 250 μM metal ion, pH 7 buffer, 2 mM Triton X-100; remark: listed apart in the source
Protocol: as §1

[15] = Metal response of PAN-7OH, absorbance at pH 7; type: binding; details: 25 μM PAN-7OH, 250 μM metal ion, pH 7 buffer, 2 mM Triton X-100; remark: listed apart in the source
Protocol: as §1

- pKA [5]: 12.258
- pH at which the Zn-(PAN-7OH) complexes decomposed, strongly alkaline conditions [9]: > 12 pH
- pH at which the Zn-(PAN-7OH) complexes decomposed, weakly acidic conditions [9]: < 6 pH
- Acidic Dissociation ([9]; Zn(PAN-7OH)2H2 decomposition under acidic conditions, midpoint of species distribution curve): 5.272
- Alkaline Dissociation ([9]; Zn(PAN-7OH)2^2− decomposition, zinc hydroxide formation, strongly alkaline conditions, midpoint of curve): 13.164
- Complex pKA ([9]; non-binding hydroxyl group in the Zn-(PAN-7OH) complex, 20 μM PAN-7OH, 20 μM zinc): 10.449
Structure (SMILES): Oc1ccc2ccc(O)c(N=Nc3ccccn3)c2c1 [PAN-7OH]
- absorbance change relative to the free dye [1]: red-shifted absorbance
- absorbance change relative to the free dye ([1]; minor): red-shifted absorbance
- absorbance change relative to the free dye [2]: blue-shifted absorbance
- absorbance change relative to the free dye [3]: blue-shifted absorbance
- absorbance change relative to the free dye [4]: did not exhibit an appreciable absorbance change
- absorbance change relative to the free dye [6]: did not exhibit an appreciable absorbance change
- absorbance change relative to the free dye [7]: did not exhibit an appreciable absorbance change
- absorbance change relative to the free dye [8]: red-shifted absorbance
- absorbance change relative to the free dye [10]: red-shifted absorbance
- absorbance change relative to the free dye [11]: did not exhibit an appreciable absorbance change
- absorbance change relative to the free dye [12]: red-shifted absorbance
- absorbance change relative to the free dye [13]: did not exhibit an appreciable absorbance change
- absorbance change relative to the free dye [14]: red-shifted absorbance
- absorbance change relative to the free dye [15]: red-shifted absorbance
